Data reported in PubChem BioAssay (NCI).
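Compound exposure: 48 hours, 5 concentrations, 96-well plates. At the GI50, growth is halved. At the TGI there is no net growth.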

Assays:
Assay in all cases: growth of human tumour cells (NCI), 48 h
[1] = test system: OVCAR-3 ovarian
[2] = test system: NCI/ADR-RES ovarian
[3] = test system: SN12C renal
[4] = test system: T-47D breast
[5] = test system: K-562 leukemia
[6] = test system: M14 melanoma
[7] = test system: TK-10 renal

With NCCCn1c2c(c3ccc([N+](=O)[O-])cc3c1=O)C(=O)c1cc(I)ccc1-2 the GI50 [1] was 1.19 µM, the TGI [1] was 2.9 µM and the GI50 [2] was 0.0416 µM. For the same compound, the TGI [2] was 1.88 µM, the GI50 [3] was less than 0.0234 µM and the TGI [3] was 1.78 µM. For the same compound, the GI50 [4] was 0.0446 µM, the TGI [4] was 2.08 µM and the GI50 [5] was less than 0.0147 µM. It also gave a TGI [5] of 0.196 µM, a GI50 [6] of 0.0315 µM and a TGI [6] of 1.32 µM.
Work on Cc1nc2c(Br)cc(Br)cc2c(=O)n1-c1nnc(-c2cccc(Cl)c2Cl)c(N)n1 yielded a GI50 [1] of 18.6 µM, a TGI [1] of 60.4 µM and a GI50 [2] of 13.6 µM. For the same compound, the TGI [2] was 37.5 µM, the GI50 [3] was 19 µM and the TGI [3] was 62 µM. It also gave a GI50 [4] of 55.2 µM, a TGI [4] greater than 100 µM and a GI50 [5] of 3.4 µM. The TGI [5] was 22.6 µM, the GI50 [6] was 4.8 µM and the TGI [6] was 22.7 µM.
For O=[N+]([O-])c1cccnc1N=Nc1c(O)[nH]c2ccccc12, the TGI [1] was greater than 100 µM, the TGI [7] was 40.8 µM and the TGI [2] was greater than 100 µM. It also gave a TGI [3] of 86.5 µM, a TGI [5] greater than 100 µM and a TGI [6] of 58.1 µM.
In the case of COc1cc2c3c(n(C)c(=O)c2cc1OC)-c1cc2c(cc1C3=O)OCO2, the TGI [1] is reported as greater than 100 µM, the TGI [7] is reported as greater than 100 µM and the TGI [2] is reported as greater than 100 µM. The TGI [3] was greater than 100 µM, the TGI [4] was 57.3 µM and the TGI [5] was greater than 92.2 µM. For the same compound, the TGI [6] was greater than 100 µM.
In the case of N#CC(I)CS(=O)(=O)c1ccccc1 (centres undefined), the GI50 [1] is reported as 2.03 µM, the TGI [1] is reported as 3.55 µM and the GI50 [7] is reported as 1.75 µM. The TGI [7] was 3.3 µM, the GI50 [2] was 17.5 µM and the TGI [2] was 35.1 µM. For the same compound, the GI50 [3] was 16.1 µM, the TGI [3] was 29.9 µM and the GI50 [4] was 18.4 µM. The TGI [4] was 42.6 µM, the GI50 [6] was 14.6 µM and the TGI [6] was 28.4 µM.
O=[N+]([O-])c1ccccc1N=Nc1c(O)[nH]c2c(Cl)cc(Cl)cc12 was tested, and the TGI [1] was greater than 74.7 µM, the TGI [7] was 96.2 µM and the TGI [2] was greater than 100 µM. For the same compound, the TGI [3] was greater than 100 µM, the TGI [4] was greater than 100 µM and the TGI [5] was greater than 100 µM. The TGI [6] was greater than 100 µM.
With CNc1cc2oc(=O)cc(C)c2cc1C the TGI [1] was greater than 100 µM, the TGI [7] was greater than 100 µM and the TGI [2] was greater than 100 µM. The TGI [3] was greater than 100 µM, the TGI [4] was greater than 100 µM and the TGI [5] was greater than 100 µM. It also gave a TGI [6] greater than 100 µM.
For Cc1cccc(NC2=C(Cl)C(=O)c3nc(C)ccc3C2=O)c1, the GI50 [1] was 0.262 µM, the TGI [1] was 1.18 µM and the GI50 [7] was 2.58 µM. It also gave a TGI [7] of 4.17 µM, a GI50 [2] of 1.58 µM and a TGI [2] of 4.14 µM. The GI50 [3] was 1.17 µM, the TGI [3] was 2.5 µM and the GI50 [4] was 1.65 µM. For the same compound, the TGI [4] was 4.29 µM, the GI50 [5] was 0.45 µM and the TGI [5] was greater than 100 µM. For the same compound, the GI50 [6] was 1.32 µM and the TGI [6] was 2.72 µM.
With O=c1[nH]c(-c2cccc(F)c2)cc2cc(F)ccc12 the GI50 [1] was 0.314 µM, the GI50 [7] was greater than 50 µM and the TGI [7] was greater than 100 µM. For the same compound, the GI50 [2] was 0.268 µM, the TGI [2] was greater than 100 µM and the GI50 [3] was 1.31 µM. It also gave a TGI [3] greater than 100 µM, a GI50 [4] greater than 100 µM and a TGI [4] greater than 100 µM. It also gave a GI50 [5] of 0.0698 µM, a TGI [5] greater than 100 µM and a GI50 [6] of 0.16 µM. For the same compound, the TGI [6] was greater than 100 µM.
COc1cc(/C=C2\CCCCC3=C2N=C2SC(C)=CN2C3c2cc(OC)c(OC)c(OC)c2)cc(OC)c1OC (centres undefined) showed a GI50 [1] of 23.7 µM, a TGI [1] greater than 100 µM and a GI50 [7] of 22.4 µM. The TGI [7] was greater than 100 µM, the GI50 [2] was 12 µM and the TGI [2] was greater than 100 µM. It also gave a GI50 [3] of 61.8 µM, a TGI [3] greater than 100 µM and a GI50 [4] of 0.566 µM. It also gave a TGI [4] greater than 100 µM, a GI50 [5] of 0.36 µM and a TGI [5] greater than 100 µM. The GI50 [6] was 23.7 µM and the TGI [6] was greater than 100 µM.
